SMILES strings stand for the structures.

The nature of data set [1]: Metal chelating activity of the compound assessed as formation of iron complex by fluorescence quenching assay. In kind it is physicochemical.
A short description of data set [2]: Metal chelating activity of the compound assessed as formation of copper complex by fluorescence quenching assay. In kind it is physicochemical.

As for `COC(=O)[C@]1(C)CCC[C@]2(C)c3cc(Nc4ccc(OC)cc4)c([N+](=O)[O-])cc3C(=O)C[C@@H]12`, the Ka in data set [1] turned out to be 165 L/mol; in data set [2], 89.2 L/mol.
The corresponding values for `COC(=O)[C@]1(C)CCC[C@]2(C)c3cc(Nc4ccc(C)cc4)c([N+](=O)[O-])cc3C(=O)C[C@@H]12` are 122.7 L/mol and 60.7 L/mol.
The corresponding values for `COC(=O)[C@]1(C)CCC[C@]2(C)c3cc(Nc4ccccc4)c([N+](=O)[O-])cc3C(=O)C[C@@H]12` are 106.9 L/mol and 60.7 L/mol.
For `COC(=O)[C@]1(C)CCC[C@]2(C)c3cc(NCCN)c([N+](=O)[O-])cc3C(=O)C[C@@H]12`, in that order: 305.9 L/mol and 97.6 L/mol.
Consider `COC(=O)[C@]1(C)CCC[C@]2(C)c3cc(NCCO)c([N+](=O)[O-])cc3C(=O)C[C@@H]12`, for which the Ka in data set [1] is 108 L/mol; in data set [2] it was 70.3 L/mol.
For `COC(=O)[C@]1(C)CCC[C@]2(C)c3cc(NC(C)(C)C)c([N+](=O)[O-])cc3C(=O)C[C@@H]12`, in that order: 103.6 L/mol and 175.6 L/mol.
For `CCCCNc1cc2c(cc1[N+](=O)[O-])C(=O)C[C@H]1[C@](C)(C(=O)OC)CCC[C@]21C`, in that order: 181.7 L/mol and 137.2 L/mol.
For `COC(=O)[C@]1(C)CCC[C@]2(C)c3cc(NC(C)C)c([N+](=O)[O-])cc3C(=O)C[C@@H]12`, in that order: 168.3 L/mol and 102.9 L/mol.
Turning to `CCCNc1cc2c(cc1[N+](=O)[O-])C(=O)C[C@H]1[C@](C)(C(=O)OC)CCC[C@]21C`, the figures for the Ka in data set [1] and in data set [2] were 135.7 L/mol and 61.7 L/mol, respectively.
For `CCNc1cc2c(cc1[N+](=O)[O-])C(=O)C[C@H]1[C@](C)(C(=O)OC)CCC[C@]21C`, in that order: 138.3 L/mol and 81.3 L/mol.
For `CNc1cc2c(cc1[N+](=O)[O-])C(=O)C[C@H]1[C@](C)(C(=O)OC)CCC[C@]21C`, in that order: 186 L/mol and 107 L/mol.

These data come from ChEMBL document CHEMBL3046298, “Synthesis and metal ion binding activity of methyl 12-amino-13-nitro-7-oxo dehydrodeisopropylabietate derivatives” (Med Chem Res, 2012).
